Key:
Cannabinoid receptor 1 = Cannabinoid receptor 1 (Homo sapiens, UniProt P21554); assay type: functional
D(4) dopamine receptor = molecular target: T1, D(4) dopamine receptor (Homo sapiens, UniProt P21917)
T1 sequence (P21917 whole entry): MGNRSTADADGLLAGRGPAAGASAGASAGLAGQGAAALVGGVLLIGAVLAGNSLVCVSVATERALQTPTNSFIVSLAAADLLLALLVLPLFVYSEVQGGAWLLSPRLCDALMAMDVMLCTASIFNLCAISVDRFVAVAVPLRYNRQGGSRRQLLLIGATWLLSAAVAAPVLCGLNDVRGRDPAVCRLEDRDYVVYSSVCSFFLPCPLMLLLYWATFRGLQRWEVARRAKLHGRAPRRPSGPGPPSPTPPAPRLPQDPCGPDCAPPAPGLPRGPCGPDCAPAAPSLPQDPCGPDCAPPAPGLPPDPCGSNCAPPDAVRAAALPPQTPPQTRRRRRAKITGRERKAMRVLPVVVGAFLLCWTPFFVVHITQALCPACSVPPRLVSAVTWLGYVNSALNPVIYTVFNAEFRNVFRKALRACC

[1] = molecular target: 5-hydroxytryptamine receptor 6 (Homo sapiens, UniProt P50406)
[2] = molecular target: Gamma-aminobutyric acid type B receptor subunit 1 (Homo sapiens, UniProt Q9UBS5)
Androgen receptor = molecular target: T2, Androgen receptor (Rattus norvegicus, UniProt P15207)
T2 sequence (P15207 whole entry): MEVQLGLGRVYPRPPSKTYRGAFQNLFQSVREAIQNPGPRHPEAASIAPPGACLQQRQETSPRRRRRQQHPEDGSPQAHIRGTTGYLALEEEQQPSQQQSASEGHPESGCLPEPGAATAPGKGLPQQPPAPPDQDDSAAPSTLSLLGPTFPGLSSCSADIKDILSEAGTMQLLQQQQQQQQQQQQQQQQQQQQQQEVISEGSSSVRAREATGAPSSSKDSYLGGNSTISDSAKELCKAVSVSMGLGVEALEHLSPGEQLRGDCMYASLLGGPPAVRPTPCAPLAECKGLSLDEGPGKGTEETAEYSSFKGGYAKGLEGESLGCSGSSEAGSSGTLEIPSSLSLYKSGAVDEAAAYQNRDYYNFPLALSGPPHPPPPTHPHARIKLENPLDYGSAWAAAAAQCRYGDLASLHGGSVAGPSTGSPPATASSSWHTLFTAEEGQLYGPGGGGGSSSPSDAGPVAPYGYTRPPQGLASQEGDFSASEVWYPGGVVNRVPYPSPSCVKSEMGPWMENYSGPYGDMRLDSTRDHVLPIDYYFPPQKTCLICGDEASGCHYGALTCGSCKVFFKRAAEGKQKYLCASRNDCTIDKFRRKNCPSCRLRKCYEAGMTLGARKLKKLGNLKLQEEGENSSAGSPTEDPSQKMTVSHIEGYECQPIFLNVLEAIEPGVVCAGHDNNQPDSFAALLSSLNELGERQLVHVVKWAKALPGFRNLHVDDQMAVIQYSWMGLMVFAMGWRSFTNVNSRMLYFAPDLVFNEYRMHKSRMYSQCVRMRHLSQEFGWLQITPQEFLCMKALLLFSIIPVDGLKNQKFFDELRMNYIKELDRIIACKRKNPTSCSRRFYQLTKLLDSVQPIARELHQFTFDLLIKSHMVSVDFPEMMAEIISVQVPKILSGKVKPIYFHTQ

Glucagon receptor = Glucagon receptor (Homo sapiens, UniProt P47871)
[3] = molecular target: T3, Corticotropin-releasing factor receptor 1 (Homo sapiens, UniProt P34998)
T3 sequence (P34998 whole entry): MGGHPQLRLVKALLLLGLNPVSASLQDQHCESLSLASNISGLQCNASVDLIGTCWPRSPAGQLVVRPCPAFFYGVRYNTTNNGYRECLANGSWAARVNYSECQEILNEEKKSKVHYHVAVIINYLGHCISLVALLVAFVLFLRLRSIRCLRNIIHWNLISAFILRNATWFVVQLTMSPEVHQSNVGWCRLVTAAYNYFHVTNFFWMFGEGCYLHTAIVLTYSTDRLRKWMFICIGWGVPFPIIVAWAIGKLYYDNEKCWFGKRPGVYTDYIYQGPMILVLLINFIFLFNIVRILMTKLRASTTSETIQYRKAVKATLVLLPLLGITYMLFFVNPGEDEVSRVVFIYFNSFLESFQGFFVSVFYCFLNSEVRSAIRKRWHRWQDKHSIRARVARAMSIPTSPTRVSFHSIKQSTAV

Substance-P receptor = Substance-P receptor (Homo sapiens, UniProt P25103)
D(1A) dopamine receptor = D(1A) dopamine receptor (Homo sapiens, UniProt P21728)
[4] = molecular target: T4, Endothelin receptor type B (Homo sapiens, UniProt P24530)
T4 sequence (P24530 whole entry): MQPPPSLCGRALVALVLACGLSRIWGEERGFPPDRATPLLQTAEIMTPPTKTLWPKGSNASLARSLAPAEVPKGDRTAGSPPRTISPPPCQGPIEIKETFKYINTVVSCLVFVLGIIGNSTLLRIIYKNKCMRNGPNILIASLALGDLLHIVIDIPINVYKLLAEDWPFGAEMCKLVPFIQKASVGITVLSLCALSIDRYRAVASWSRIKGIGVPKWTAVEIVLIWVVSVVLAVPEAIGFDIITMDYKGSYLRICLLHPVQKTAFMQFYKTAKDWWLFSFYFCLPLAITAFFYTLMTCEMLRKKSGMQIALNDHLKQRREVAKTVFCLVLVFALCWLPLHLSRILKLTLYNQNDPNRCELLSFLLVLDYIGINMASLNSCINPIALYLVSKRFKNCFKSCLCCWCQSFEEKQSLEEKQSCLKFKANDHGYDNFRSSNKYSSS
Further: assay procedure not described here.

Sequence of 5-hydroxytryptamine receptor 6 (P50406 whole entry): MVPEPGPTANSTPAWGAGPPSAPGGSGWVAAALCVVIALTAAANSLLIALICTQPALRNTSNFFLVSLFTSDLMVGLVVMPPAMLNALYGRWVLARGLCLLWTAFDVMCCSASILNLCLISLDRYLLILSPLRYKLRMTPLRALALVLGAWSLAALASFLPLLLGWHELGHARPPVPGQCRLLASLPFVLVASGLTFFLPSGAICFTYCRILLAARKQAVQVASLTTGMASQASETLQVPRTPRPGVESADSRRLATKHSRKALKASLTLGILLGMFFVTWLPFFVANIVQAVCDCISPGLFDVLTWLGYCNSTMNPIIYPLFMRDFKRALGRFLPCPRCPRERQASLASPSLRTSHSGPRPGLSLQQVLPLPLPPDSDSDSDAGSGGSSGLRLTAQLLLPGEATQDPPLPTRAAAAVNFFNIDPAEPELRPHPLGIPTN
Sequence of D(1A) dopamine receptor (P21728 whole entry): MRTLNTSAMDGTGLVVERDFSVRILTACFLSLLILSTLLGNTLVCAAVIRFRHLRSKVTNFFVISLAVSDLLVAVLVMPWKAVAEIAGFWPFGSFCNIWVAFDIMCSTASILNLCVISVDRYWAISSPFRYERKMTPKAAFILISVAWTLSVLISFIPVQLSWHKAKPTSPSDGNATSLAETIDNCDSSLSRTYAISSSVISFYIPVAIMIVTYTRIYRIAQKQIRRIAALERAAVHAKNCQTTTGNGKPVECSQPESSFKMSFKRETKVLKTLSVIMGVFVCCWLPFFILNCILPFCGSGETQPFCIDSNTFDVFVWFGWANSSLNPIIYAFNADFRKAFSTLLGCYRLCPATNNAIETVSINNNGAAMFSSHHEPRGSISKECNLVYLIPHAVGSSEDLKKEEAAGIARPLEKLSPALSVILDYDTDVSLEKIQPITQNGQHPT
Sequence of Substance-P receptor (P25103 whole entry): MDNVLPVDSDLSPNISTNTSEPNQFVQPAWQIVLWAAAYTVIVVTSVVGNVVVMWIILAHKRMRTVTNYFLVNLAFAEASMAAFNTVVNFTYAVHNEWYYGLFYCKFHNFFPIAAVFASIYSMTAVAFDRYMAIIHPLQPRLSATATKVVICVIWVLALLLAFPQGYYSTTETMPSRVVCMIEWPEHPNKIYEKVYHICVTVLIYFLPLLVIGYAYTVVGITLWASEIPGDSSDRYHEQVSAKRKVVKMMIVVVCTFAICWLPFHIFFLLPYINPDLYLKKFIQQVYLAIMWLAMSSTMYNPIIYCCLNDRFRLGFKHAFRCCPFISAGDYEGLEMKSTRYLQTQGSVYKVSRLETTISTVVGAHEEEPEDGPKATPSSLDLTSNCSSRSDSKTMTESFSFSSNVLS
Sequence of Cannabinoid receptor 1 (P21554 whole entry): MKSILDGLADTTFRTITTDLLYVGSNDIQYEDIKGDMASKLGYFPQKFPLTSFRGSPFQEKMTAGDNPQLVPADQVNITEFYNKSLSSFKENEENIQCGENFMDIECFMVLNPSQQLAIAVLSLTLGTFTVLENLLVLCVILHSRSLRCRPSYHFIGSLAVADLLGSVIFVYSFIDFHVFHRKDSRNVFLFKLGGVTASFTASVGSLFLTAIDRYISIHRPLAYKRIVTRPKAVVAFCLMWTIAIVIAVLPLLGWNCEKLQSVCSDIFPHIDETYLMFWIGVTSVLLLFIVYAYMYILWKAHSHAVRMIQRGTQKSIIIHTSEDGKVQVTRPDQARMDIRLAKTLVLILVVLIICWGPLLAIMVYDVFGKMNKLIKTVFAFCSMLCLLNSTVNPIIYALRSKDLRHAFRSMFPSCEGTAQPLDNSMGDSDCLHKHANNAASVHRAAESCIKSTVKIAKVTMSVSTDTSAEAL
Sequence of Gamma-aminobutyric acid type B receptor subunit 1 (Q9UBS5 whole entry): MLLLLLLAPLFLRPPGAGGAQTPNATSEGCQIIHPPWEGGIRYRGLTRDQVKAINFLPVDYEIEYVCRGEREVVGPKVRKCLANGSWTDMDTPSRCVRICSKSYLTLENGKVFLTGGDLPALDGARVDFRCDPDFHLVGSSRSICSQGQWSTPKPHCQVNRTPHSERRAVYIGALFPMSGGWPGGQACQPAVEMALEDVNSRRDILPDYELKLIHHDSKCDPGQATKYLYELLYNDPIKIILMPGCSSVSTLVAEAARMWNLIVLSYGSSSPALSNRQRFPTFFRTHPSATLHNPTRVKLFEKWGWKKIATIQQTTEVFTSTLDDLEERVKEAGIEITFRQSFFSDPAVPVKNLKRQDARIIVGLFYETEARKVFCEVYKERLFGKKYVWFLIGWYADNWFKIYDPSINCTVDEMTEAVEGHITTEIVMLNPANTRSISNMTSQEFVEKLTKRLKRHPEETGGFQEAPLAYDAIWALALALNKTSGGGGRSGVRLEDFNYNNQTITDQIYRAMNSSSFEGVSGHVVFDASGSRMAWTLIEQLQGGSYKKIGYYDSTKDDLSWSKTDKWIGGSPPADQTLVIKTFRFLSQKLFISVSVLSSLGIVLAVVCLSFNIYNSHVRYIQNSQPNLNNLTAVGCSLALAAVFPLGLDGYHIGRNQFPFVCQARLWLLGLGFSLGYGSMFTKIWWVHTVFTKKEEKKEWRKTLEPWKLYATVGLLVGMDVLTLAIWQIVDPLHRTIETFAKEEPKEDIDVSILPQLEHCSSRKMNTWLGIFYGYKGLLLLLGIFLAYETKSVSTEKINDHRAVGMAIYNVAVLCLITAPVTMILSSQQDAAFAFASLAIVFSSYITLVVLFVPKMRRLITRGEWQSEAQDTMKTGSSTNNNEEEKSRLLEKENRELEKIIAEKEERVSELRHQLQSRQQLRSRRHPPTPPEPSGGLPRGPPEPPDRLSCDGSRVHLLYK
Sequence of Glucagon receptor (P47871 whole entry): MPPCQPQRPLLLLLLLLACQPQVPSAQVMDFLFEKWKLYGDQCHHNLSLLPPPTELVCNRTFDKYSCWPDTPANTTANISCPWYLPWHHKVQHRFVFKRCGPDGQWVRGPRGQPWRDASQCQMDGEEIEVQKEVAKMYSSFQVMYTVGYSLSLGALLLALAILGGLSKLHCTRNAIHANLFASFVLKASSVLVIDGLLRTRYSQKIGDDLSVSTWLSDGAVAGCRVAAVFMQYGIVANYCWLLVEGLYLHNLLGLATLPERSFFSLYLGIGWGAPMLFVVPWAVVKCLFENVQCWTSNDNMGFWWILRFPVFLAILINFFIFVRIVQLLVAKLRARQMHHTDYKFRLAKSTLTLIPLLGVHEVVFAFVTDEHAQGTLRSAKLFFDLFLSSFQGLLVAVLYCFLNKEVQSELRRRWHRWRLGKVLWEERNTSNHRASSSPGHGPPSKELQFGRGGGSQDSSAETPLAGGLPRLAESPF

SMILES: COC1=C(OC)C(=O)C(CCCCCCCCCCO)=C(C)C1=O [IDEBENONE]
- AC50 (Cannabinoid receptor 1): > 10 µM
- AC50 (D(4) dopamine receptor): > 10 µM
- AC50 [1]: > 10 µM
- AC50 [2]: > 10 µM
- AC50 (Androgen receptor): > 30 µM
- AC50 (Glucagon receptor): > 30 µM
- AC50 [3]: > 30 µM
- AC50 (Substance-P receptor): > 10 µM
- AC50 (D(1A) dopamine receptor): > 10 µM
- AC50 [4]: > 30 µM
